Measured values from patent publication US9993494B2, “Compositions and methods for treating fibrotic disease” (eFFECTOR Therapeutics, Inc., priority 2014, dated 2018).

Tested on: normal human lung fibroblasts
Experiment: Ribosomal profiling: translational efficiency in TGFβ-treated fibroblasts
Format: cell-based
Method in brief: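 Cells lysed on ice after a cold PBS wash containing cycloheximide. Ribosome-protected fragments and total mRNA were prepared with the ARTseq kit and sequenced by RNA-Seq. Reads were trimmed, mapped to the human genome and counted uniquely over coding regions per gene, with low-count genes excluded before differential translational-efficiency analysis.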

TGFβ
Log2 TE RPS6KA5 (ENSG00000100784, 5 replicates): −1.431
Log2 TE CEP192 (ENSG00000101639, 5 replicates): −1.192
change in translational profile of CEP192 caused by TGFβ (ENSG00000101639, Control vs. TGFβ): C (C = <−1.0 to −1.5)
change in translational profile of AMMECR1 caused by TGFβ (ENSG00000101935, Control vs. TGFβ): D (D = <1.0 to 1.5)
change in translational profile of PLP2 caused by TGFβ (ENSG00000102007, Control vs. TGFβ): D (D = <1.0 to 1.5)
Log2 TE SGK3 (ENSG00000104205, 5 replicates): −1.011
Log2 TE TRPA1 (ENSG00000104321, 5 replicates): −1.256
Log2 TE EIF3E (ENSG00000104408, 5 replicates): 1.469
change in translational profile of EIF3E caused by TGFβ (ENSG00000104408, Control vs. TGFβ): E (E = <1.5 to 2.5)
Log2 TE EEF1D (ENSG00000104529, 5 replicates): 1.619
change in translational profile of EEF1D caused by TGFβ (ENSG00000104529, Control vs. TGFβ): E (E = <1.5 to 2.5)
change in translational profile of C19orf53 caused by TGFβ (ENSG00000104979, Control vs. TGFβ): D (D = <1.0 to 1.5)
Log2 TE RPS16 (ENSG00000105193, 5 replicates): 1.989
Log2 TE RPS19 (ENSG00000105372, 5 replicates): 1.55
Log2 TE GLTSCR2 (ENSG00000105373, 5 replicates): 2.067
change in translational profile of GLTSCR2 caused by TGFβ (ENSG00000105373, Control vs. TGFβ): E (E = <1.5 to 2.5)
change in translational profile of RAB3D caused by TGFβ (ENSG00000105514, Control vs. TGFβ): B (B = <−1.5 to −2.5)
Log2 TE RPL18A (ENSG00000105640, 5 replicates): 1.669
change in translational profile of RPL18A caused by TGFβ (ENSG00000105640, Control vs. TGFβ): E (E = <1.5 to 2.5)
Log2 TE COMP (ENSG00000105664, 5 replicates): 1.317
change in translational profile of COMP caused by TGFβ (ENSG00000105664, Control vs. TGFβ): E (E = <1.5 to 2.5)
Log2 TE GLCCI1 (ENSG00000106415, 5 replicates): −1.842
change in translational profile of GLCCI1 caused by TGFβ (ENSG00000106415, Control vs. TGFβ): B (B = <−1.5 to −2.5)
Log2 TE CORO2A (ENSG00000106789, 5 replicates): 1.212
change in translational profile of CORO2A caused by TGFβ (ENSG00000106789, Control vs. TGFβ): E (E = <1.5 to 2.5)
change in translational profile of GDF10 caused by TGFβ (ENSG00000107623, Control vs. TGFβ): C (C = <−1.0 to −1.5)
Log2 TE RPL28 (ENSG00000108107, 5 replicates): 1.869
change in translational profile of RPL28 caused by TGFβ (ENSG00000108107, Control vs. TGFβ): E (E = <1.5 to 2.5)
Log2 TE RPL19 (ENSG00000108298, 5 replicates): 1.075
change in translational profile of RPL19 caused by TGFβ (ENSG00000108298, Control vs. TGFβ): D (D = <1.0 to 1.5)
Log2 TE RASD1 (ENSG00000108551, 5 replicates): 1.836
change in translational profile of RASD1 caused by TGFβ (ENSG00000108551, Control vs. TGFβ): E (E = <1.5 to 2.5)
Log2 TE SLC16A6 (ENSG00000108932, 5 replicates): −1.3497
change in translational profile of NAT9 caused by TGFβ (ENSG00000109065, Control vs. TGFβ): D (D = <1.0 to 1.5)
Log2 TE INPP4B (ENSG00000109452, 5 replicates): −1.569
Log2 TE RPL34 (ENSG00000109475, 5 replicates): 1.608
change in translational profile of RPL34 caused by TGFβ (ENSG00000109475, Control vs. TGFβ): E (E = <1.5 to 2.5)
Log2 TE NEIL3 (ENSG00000109674, 5 replicates): −2.63
Log2 TE CRYAB (ENSG00000109846, 5 replicates): 1.107
change in translational profile of CRYAB caused by TGFβ (ENSG00000109846, Control vs. TGFβ): D (D = <1.0 to 1.5)
Log2 TE RPS13 (ENSG00000110700, 5 replicates): 1.539
Log2 TE KRT18 (ENSG00000111057, 5 replicates): 1.811
Log2 TE GAPDH (ENSG00000111640, 5 replicates): 1.263
change in translational profile of GAPDH caused by TGFβ (ENSG00000111640, Control vs. TGFβ): E (E = <1.5 to 2.5)
Log2 TE C12orf57 (ENSG00000111678, 5 replicates): 1.173
change in translational profile of C12orf57 caused by TGFβ (ENSG00000111678, Control vs. TGFβ): D (D = <1.0 to 1.5)
Log2 TE BVES (ENSG00000112276, 5 replicates): 1.173
Log2 TE RPS12 (ENSG00000112306, 5 replicates): 1.642
change in translational profile of MDFI caused by TGFβ (ENSG00000112559, Control vs. TGFβ): A (A = <−2.5)
Log2 TE HBEGF (ENSG00000113070, 5 replicates): 1.088
change in translational profile of HBEGF caused by TGFβ (ENSG00000113070, Control vs. TGFβ): D (D = <1.0 to 1.5)
Log2 TE THG1L (ENSG00000113272, 5 replicates): 1.155
Log2 TE RPL24 (ENSG00000114391, 5 replicates): 1.304
change in translational profile of RPL24 caused by TGFβ (ENSG00000114391, Control vs. TGFβ): E (E = <1.5 to 2.5)
Log2 TE EEF1B2 (ENSG00000114942, 5 replicates): 1.434
change in translational profile of EEF1B2 caused by TGFβ (ENSG00000114942, Control vs. TGFβ): E (E = <1.5 to 2.5)
Log2 TE IFIH1 (ENSG00000115267, 5 replicates): −1.416
change in translational profile of IFIH1 caused by TGFβ (ENSG00000115267, Control vs. TGFβ): B (B = <−1.5 to −2.5)
Log2 TE RPS15 (ENSG00000115268, 5 replicates): 1.3
